Data reported in US20250195521A1 (Revolution Medicines, Inc., priority 2020, published 2025).

Key:
[1] = target: KRAS G13C binding to BRAF RBD (Homo sapiens (Human), UniProt P01116+P62937, G13C); experiment: Ras-Raf disruption/FRET/MOA assay, KRAS G13C; type: biochemical
Excerpt: Disruption of B-Raf Ras-binding Domain (BRAF^RBD) Interaction with K-Ras by Compounds of the Invention (also called a FRET assay or an MOA assay)
Note—The following protocol describes a procedure for monitoring disruption of K-Ras G12C(GMP-PNP) binding to BRAF^RBD by a compound of the invention. This protocol may also be executed substituting other Ras proteins or nucleotides.
(§1) The purpose of this biochemical assay was to measure the ability of test compounds to facilitate ternary complex formation between a nucleotide-loaded K-Ras isoform and Cyclophilin A; the resulting ternary complex disrupts binding to a BRAF^RBD construct, inhibiting K-Ras signaling through a RAF effector. Data is reported as IC50 values.
(§2) In assay buffer containing 25 mM HEPES pH 7.3, 0.002% Tween20, 0.1% BSA, 100 mM NaCl and 5 mM MgCl2, tagless Cyclophilin A, His6-K-Ras-GMPPNP, and GST-BRAF^RBD were combined in a 384-well assay plate at final concentrations of 25 μM, 12.5 nM and 50 nM, respectively. Compound was present in plate wells as a 10-point 3-fold dilution series starting at a final concentration of 30 μM. After incubation at 25° C. for 3 hours, a mixture of Anti-His Eu—W1024 and anti-GST allophycocyanin was then added to assay sample wells at final concentrations of 10 nM and 50 nM, respectively, and the reaction incubated for an additional 1.5 hours. […] Compounds that facilitate disruption of a K-Ras: RAF complex were identified as those eliciting a decrease in the TR-FRET ratio relative to DMSO control wells.

[2] = target: NRAS G12C binding to BRAF RBD (Homo sapiens (Human), UniProt P01111+P62937, G12C); experiment: Ras-Raf disruption/FRET/MOA assay, NRAS G12C; type: biochemical
Method in brief: (§3)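 Cpd 10-pt 3-fold dilution, top 30 μM final; Ras/CypA/BRAF RBD mix 3 h, 25° C. Add anti-His Eu-W1024 10 nM + anti-GST APC 50 nM final, 1.5 h. Readout TR-FRET ratio decrease vs DMSO → IC50.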

[3] = tested on: K-Ras G12C (NCI-H358 cells); experiment: Potency assay: pERK in NCI-H358 cells; type: cell-based, human; settings: Homo sapiens; NCI-H358 cells, 4 hours; read-out: pERK EC50 (H358 KRAS G12C)
Method in brief: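 Cells plated the day before were exposed for 4 h at 37° C, 5% CO2 to a 10-point, 3-fold DMSO dilution series (10 mM top stock), in duplicate. Phospho-ERK was read by AlphaLISA SureFire Ultra or by In-Cell Western with DRAQ5 DNA stain, and IC50 came from a 4-parameter sigmoidal fit.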

NCI-H358 (K-Ras G12C) = experiment: CellTiter-Glo cell viability assay, NCI-H358; type: cell-based, human; settings: Homo sapiens, NCI-H358, 120 h, 5-day treatment; read-out: H358 Cell Viability assay data (K-Ras G12C, IC50)
Method in brief: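 Viability read-out was luminescent (CellTiter-Glo) on day 5 of compound exposure in K-Ras G12C NCI-H358 cells. Values were expressed as percent of mean DMSO signal and fitted with a four-parameter logistic curve.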

[4] = target: K-Ras G12C(GMP-PNP) binding to BRAF RBD (Homo sapiens (Human), UniProt P01116+P62937, G12C); experiment: Disruption of BRAF RBD interaction with K-Ras (FRET / MOA assay), K-Ras G12C; type: biochemical; settings: read-out: KRAS G12C FRET IC50
Method in brief: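 Incubation of compound (up to 30 μM final, 3-fold steps) with GMP-PNP-type loaded Ras isoform, cyclophilin A and BRAF RBD ran 3 h at 25° C, followed by 1.5 h with detection antibodies. Disruption appears as a reduced TR-FRET ratio compared with DMSO controls, expressed as IC50.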

[5] = target: KRAS G12S binding to BRAF RBD (Homo sapiens (Human), UniProt P01116+P62937, G12S); experiment: Ras-Raf disruption/FRET/MOA assay, KRAS G12S; type: biochemical
Method in brief: as §3

[6] = target: KRAS WT binding to BRAF RBD (Homo sapiens (Human), UniProt P01116+P62937); experiment: Ras-Raf disruption/FRET/MOA assay, KRAS WT; type: biochemical
Sequence of KRAS WT binding to BRAF RBD (P01116 other isoform, or with tags, fused parts or gaps): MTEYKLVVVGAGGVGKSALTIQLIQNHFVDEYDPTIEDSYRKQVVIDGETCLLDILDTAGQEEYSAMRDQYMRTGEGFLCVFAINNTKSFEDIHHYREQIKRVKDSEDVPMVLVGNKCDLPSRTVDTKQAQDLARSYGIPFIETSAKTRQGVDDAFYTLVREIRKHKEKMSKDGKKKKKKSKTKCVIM
Sequence of KRAS WT binding to BRAF RBD (P62937 whole entry): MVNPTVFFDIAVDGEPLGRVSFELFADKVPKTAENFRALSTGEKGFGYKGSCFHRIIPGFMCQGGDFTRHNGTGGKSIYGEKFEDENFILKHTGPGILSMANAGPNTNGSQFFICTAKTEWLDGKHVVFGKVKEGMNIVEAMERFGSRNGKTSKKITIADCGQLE
Method in brief: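 Compounds (top 30 μM, 3-fold, 10 points) promote Cyclophilin A (25 μM) ternary complex with His6-Ras-GMPPNP (12.5 nM), disrupting GST-BRAF RBD (50 nM) binding; 3 h, 25°C, 25 mM HEPES pH 7.3, 100 mM NaCl, 5 mM MgCl2. Detection reagents (Eu anti-His 10 nM, APC anti-GST 50 nM) added for 1.5 h; IC50 reported.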

AsPC-1 (K-Ras G12D) = experiment: Potency assay: pERK; type: cell-based, human; settings: Homo sapiens, ASPC1; AsPC-1 KRAS G12D; read-out: pERK EC50
Method in brief: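 pERK decrease measured after 4 h compound treatment at 37 °C (10 three-fold dilutions, duplicate wells), by either fixed-cell In-Cell Western with DRAQ5 counterstain or AlphaLISA on lysates. Signal fitted against log concentration with a four-parameter model to give IC50.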

KRAS G13D = KRAS G13D (Homo sapiens (Human), UniProt P01116+P62937, G13D); experiment: Ras-Raf disruption/FRET/MOA assay, KRAS G13D; type: biochemical
Sequence of KRAS G13D (P01116 other isoform, or with tags, fused parts or gaps G13D): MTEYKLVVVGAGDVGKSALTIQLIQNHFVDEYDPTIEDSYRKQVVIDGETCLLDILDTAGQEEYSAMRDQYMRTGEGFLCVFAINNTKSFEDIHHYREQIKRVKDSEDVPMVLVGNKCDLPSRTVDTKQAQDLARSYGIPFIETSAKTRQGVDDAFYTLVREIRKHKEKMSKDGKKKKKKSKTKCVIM
Sequence of KRAS G13D (P62937 whole entry): as the sequence (P62937 whole entry) above
Method in brief: (§4)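 His6-Ras-GMPPNP 12.5 nM + GST-BRAF^RBD 50 nM + CypA 25 μM; HEPES pH 7.3, 5 mM MgCl2, 0.1% BSA, 0.002% Tween20. Cpd 10-pt 3-fold from 30 μM final, 3 h 25° C. Eu/APC antibody detection 1.5 h; TR-FRET ratio drop vs DMSO → IC50.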

KRAS G12S = KRAS G12S (Homo sapiens (Human), UniProt P01116+P62937, G12S); experiment: Ras-Raf disruption/FRET/MOA assay, KRAS G12S; type: biochemical
Sequence of KRAS G12S (P01116 other isoform, or with tags, fused parts or gaps G12S): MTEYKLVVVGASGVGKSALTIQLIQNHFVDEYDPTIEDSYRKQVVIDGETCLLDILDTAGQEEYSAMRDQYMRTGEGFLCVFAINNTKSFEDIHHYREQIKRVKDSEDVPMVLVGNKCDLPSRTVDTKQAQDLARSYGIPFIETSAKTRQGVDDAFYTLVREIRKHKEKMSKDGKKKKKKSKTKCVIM
Sequence of KRAS G12S (P62937 whole entry): as the sequence (P62937 whole entry) above
Method in brief: as §4

KRAS G13C = KRAS G13C (Homo sapiens (Human), UniProt P01116+P62937, G13C); experiment: Ras-Raf disruption/FRET/MOA assay, KRAS G13C; type: biochemical
Sequence of KRAS G13C (P01116 other isoform, or with tags, fused parts or gaps G13C): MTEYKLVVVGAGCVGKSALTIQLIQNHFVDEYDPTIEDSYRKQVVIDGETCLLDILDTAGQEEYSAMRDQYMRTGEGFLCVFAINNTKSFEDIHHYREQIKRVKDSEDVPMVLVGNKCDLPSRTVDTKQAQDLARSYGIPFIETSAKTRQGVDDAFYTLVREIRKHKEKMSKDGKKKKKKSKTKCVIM
Sequence of KRAS G13C (P62937 whole entry): as the sequence (P62937 whole entry) above
Method in brief: as §4

KRAS G12V = KRAS G12V (Homo sapiens (Human), UniProt P01116+P62937, G12V); experiment: Ras-Raf disruption/FRET/MOA assay, KRAS G12V; type: biochemical
Sequence of KRAS G12V (P01116 other isoform, or with tags, fused parts or gaps G12V): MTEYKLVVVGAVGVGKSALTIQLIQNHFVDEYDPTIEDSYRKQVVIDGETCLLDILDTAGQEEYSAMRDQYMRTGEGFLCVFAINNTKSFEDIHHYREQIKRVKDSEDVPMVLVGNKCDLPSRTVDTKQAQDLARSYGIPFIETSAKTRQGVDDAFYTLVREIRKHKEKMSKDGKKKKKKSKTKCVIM
Sequence of KRAS G12V (P62937 whole entry): as the sequence (P62937 whole entry) above
Method in brief: as §4

KRAS G12D = KRAS G12D (Homo sapiens (Human), UniProt P01116+P62937, G12D); experiment: Ras-Raf disruption/FRET/MOA assay, KRAS G12D; type: biochemical
Sequence of KRAS G12D (P01116 other isoform, or with tags, fused parts or gaps G12D): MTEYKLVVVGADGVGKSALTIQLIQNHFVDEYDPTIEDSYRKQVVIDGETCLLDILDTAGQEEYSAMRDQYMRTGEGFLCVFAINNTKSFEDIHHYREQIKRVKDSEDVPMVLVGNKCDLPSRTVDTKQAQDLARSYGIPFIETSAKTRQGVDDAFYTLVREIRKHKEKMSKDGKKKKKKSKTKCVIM
Sequence of KRAS G12D (P62937 whole entry): as the sequence (P62937 whole entry) above
Method in brief: as §4

KRAS WT = KRAS WT (Homo sapiens (Human), UniProt P01116+P62937); experiment: Ras-Raf disruption/FRET/MOA assay, KRAS WT; type: biochemical
Sequence of KRAS WT (P01116 other isoform, or with tags, fused parts or gaps): as the sequence (P01116 other isoform, or with tags, fused parts or gaps) above
Sequence of KRAS WT (P62937 whole entry): as the sequence (P62937 whole entry) above
Method in brief: as §4

KRAS G12C = KRAS G12C (Homo sapiens (Human), UniProt P01116+P62937, G12C); experiment: Ras-Raf disruption/FRET/MOA assay, KRAS G12C; type: biochemical
Sequence of KRAS G12C (P01116-2 other isoform, or with tags, fused parts or gaps G12C): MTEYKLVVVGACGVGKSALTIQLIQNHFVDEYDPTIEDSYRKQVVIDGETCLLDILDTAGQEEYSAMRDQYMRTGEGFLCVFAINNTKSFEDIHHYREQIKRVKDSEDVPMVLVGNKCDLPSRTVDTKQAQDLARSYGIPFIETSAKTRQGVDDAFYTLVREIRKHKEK
Sequence of KRAS G12C (P62937 whole entry): as the sequence (P62937 whole entry) above
Method in brief: as §4

KRAS Q61H = KRAS Q61H (Homo sapiens (Human), UniProt P01116+P62937, Q61H); experiment: Ras-Raf disruption/FRET/MOA assay, KRAS Q61H; type: biochemical
Sequence of KRAS Q61H (P01116 other isoform, or with tags, fused parts or gaps Q61H): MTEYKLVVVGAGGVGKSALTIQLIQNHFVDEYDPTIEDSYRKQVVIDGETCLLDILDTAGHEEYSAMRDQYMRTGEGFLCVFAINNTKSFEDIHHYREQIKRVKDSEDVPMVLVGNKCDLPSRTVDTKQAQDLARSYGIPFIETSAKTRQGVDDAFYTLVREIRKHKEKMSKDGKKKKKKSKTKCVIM
Sequence of KRAS Q61H (P62937 whole entry, the tested form may be a part): as the sequence (P62937 whole entry) above
Excerpt: (§5) Disruption of B-Raf Ras-Binding Domain (BRAF^RBD) Interaction with K-Ras by Compounds of the Invention (Also Called a FRET Assay or an MOA Assay)
(§6) Note—The following protocol describes a procedure for monitoring disruption of K-Ras G12C (GMP-PNP) binding to BRAF^RBD by a compound of the invention. This protocol may also be executed substituting other Ras proteins or nucleotides, such as K-Ras G12D and K-Ras G13D.
as §1
as §2, with “12.5 nM,” for “12.5 nM”, “of anti-His” for “of Anti-His”

NRAS G12C = NRAS G12C (Homo sapiens (Human), UniProt P01111+P62937, G12C); experiment: Ras-Raf disruption/FRET/MOA assay, NRAS G12C; type: biochemical
Sequence of NRAS G12C (P01111 whole entry G12C): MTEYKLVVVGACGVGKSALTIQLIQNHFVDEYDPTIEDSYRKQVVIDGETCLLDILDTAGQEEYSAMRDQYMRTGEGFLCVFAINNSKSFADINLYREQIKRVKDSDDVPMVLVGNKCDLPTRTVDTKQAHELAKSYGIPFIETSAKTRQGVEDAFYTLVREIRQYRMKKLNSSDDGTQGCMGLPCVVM
Sequence of NRAS G12C (P62937 whole entry): as the sequence (P62937 whole entry) above
Method in brief: as §4

NRAS WT = NRAS WT (Homo sapiens (Human), UniProt P01111+P62937); experiment: Ras-Raf disruption/FRET/MOA assay, NRAS WT; type: biochemical
Sequence of NRAS WT (P01111 whole entry): as the sequence (P01111 whole entry G12C) above, with C12G counted along it
Sequence of NRAS WT (P62937 whole entry): as the sequence (P62937 whole entry) above
Excerpt: as §5, §6, §1
as §2, with “12.5 nM,” for “12.5 nM”, “of anti-His” for “of Anti-His”

NRAS Q61K = NRAS Q61K (Homo sapiens (Human), UniProt P01111+P62937, Q61K); experiment: Ras-Raf disruption/FRET/MOA assay, NRAS Q61K; type: biochemical
Sequence of NRAS Q61K (P01111 whole entry Q61K): as the sequence (P01111 whole entry G12C) above, with C12G, Q61K counted along it
Sequence of NRAS Q61K (P62937 whole entry): as the sequence (P62937 whole entry) above
Excerpt: as §5, §6, §1
as §2, with “12.5 nM,” for “12.5 nM”, “of anti-His” for “of Anti-His”

NRAS Q61R = NRAS Q61R (Homo sapiens (Human), UniProt P01111+P62937, Q61R); experiment: Ras-Raf disruption/FRET/MOA assay, NRAS Q61R; type: biochemical
Sequence of NRAS Q61R (P01111 whole entry Q61R): as the sequence (P01111 whole entry G12C) above, with C12G, Q61R counted along it
Sequence of NRAS Q61R (P62937 whole entry): as the sequence (P62937 whole entry) above
Excerpt: as §5, §6, §1
as §2, with “12.5 nM,” for “12.5 nM”, “of anti-His” for “of Anti-His”

Sequence of KRAS G13C binding to BRAF RBD (P01116 other isoform, or with tags, fused parts or gaps G13C): as the sequence (P01116 other isoform, or with tags, fused parts or gaps G13C) above
Sequence of KRAS G13C binding to BRAF RBD (P62937 whole entry, the tested form may be a part): as the sequence (P62937 whole entry) above

Row | IC50 [1] [µM] | IC50 [2] [µM] | EC50 [3] [µM] | IC50 (NCI-H358 (K-Ras G12C)) [µM] | IC50 [4] [µM] | IC50 [5] [µM] | IC50 [6] [µM] | SMILES | EC50 (AsPC-1 (K-Ras G12D)) [µM] | IC50 (KRAS G13D) [µM] | IC50 (KRAS G12S) [µM] | IC50 (KRAS G13C) [µM] | IC50 (KRAS G12V) [µM] | IC50 (KRAS G12D) [µM] | IC50 (KRAS WT) [µM] | IC50 (KRAS G12C) [µM] | IC50 (KRAS Q61H) [µM] | IC50 (NRAS G12C) [µM] | IC50 (NRAS WT) [µM] | IC50 (NRAS Q61K) [µM] | IC50 (NRAS Q61R) [µM]
1 | < 0.01 | < 0.01 |  |  |  |  |  | CCn1c(-c2cnccc2COC)c2c3cc(ccc31)-c1cc(O)cc(c1)C[C@H](NC(=O)[C@H](C(C)C)N(C)C(=O)[C@H]1CCN(C(=O)C#CCN(C)C)C1)C(=O)N1CCC[C@H](N1)C(=O)OCC(C)(C)C2 [Compound A107] |  |  |  |  |  |  |  |  |  |  |  |  | 
2 | < 0.01 |  | < 5 | < 0.01 | < 0.01 | 0.01 to 0.1 | 0.01 to 0.1 | CCn1c(-c2cccnc2[C@H](C)OC)c2c3cc(ccc31)-c1csc(n1)C[C@H](NC(=O)[C@H](C(C)C)N(C)C(=O)N1CC(C)(OC)C1)C(=O)N1CCC[C@H](N1)C(=O)OCC(C)(C)C2 [Compound A299] |  |  |  |  |  |  |  |  |  |  |  |  | 
3 |  |  |  |  |  |  |  | CCn1c(-c2cccnc2[C@H](C)OC)c2c3cc(ccc31)-c1cc(O)cc(c1)C[C@H](NC(=O)[C@H](C(C)C)N(C)C(=O)[C@@]1(C)CCCN1C(=O)[C@H]1CN1)C(=O)N1CCC[C@H](N1)C(=O)OCC(C)(C)C2 [Example 239] | < 5 | 0.01 to 0.1 | 0.01 to 0.1 | 0.01 to 0.1 | 0.01 to 0.1 | 0.1 to 1 | 0.01 to 0.1 | 0.01 to 0.1 | 0.01 to 0.1 | 0.01 to 0.1 | 0.01 to 0.1 | 0.1 to 1 | 0.1 to 1
4 |  |  |  |  |  |  |  | CCn1c(-c2cccnc2[C@H](C)OC)c2c3cc(ccc31)-c1cc(O)cc(c1)C[C@H](NC(=O)[C@@H](C(C)C)N(C)C(=O)[C@@]1(C)CCCN1C(=O)[C@H]1CN1)C(=O)N1CCC[C@H](N1)C(=O)OCC(C)(C)C2 [Example 240] | < 5 | 1 to 10 | 1 to 10 | 1 to 10 | 1 to 10 | 1 to 10 | 0.1 to 1 | 0.1 to 1 | 0.1 to 1 | 0.1 to 1 | 1 to 10 | > 10 | 1 to 10
5 |  |  |  |  |  |  |  | CCn1c(-c2cccnc2[C@H](C)OC)c2c3cc(ccc31)-c1cc(O)cc(c1)C[C@H](NC(=O)[C@H](C(C)C)N(C)C(=O)[C@@]1(C)CCCN1C(=O)[C@@H]1CN1)C(=O)N1CCC[C@H](N1)C(=O)OCC(C)(C)C2 [Example 241] | < 5 | 0.01 to 0.1 | 0.01 to 0.1 | 0.01 to 0.1 | 0.01 to 0.1 | 0.01 to 0.1 | 0.01 to 0.1 | < 0.01 | 0.01 to 0.1 | < 0.01 | 0.01 to 0.1 | 0.1 to 1 | 0.1 to 1
6 |  |  |  |  |  |  |  | CCn1c(-c2cccnc2[C@H](C)OC)c2c3cc(ccc31)-c1cc(O)cc(c1)C[C@H](NC(=O)[C@@H](C(C)C)N(C)C(=O)[C@@]1(C)CCCN1C(=O)[C@@H]1CN1)C(=O)N1CCC[C@H](N1)C(=O)OCC(C)(C)C2 [Example 242] | < 5 | 0.1 to 1 | 0.1 to 1 | 1 to 10 | 1 to 10 | 0.1 to 1 | 0.1 to 1 | 0.1 to 1 | 0.1 to 1 | 0.1 to 1 | 0.1 to 1 | 1 to 10 | 1 to 10
7 |  |  |  |  |  |  |  | CCn1c(-c2cccnc2[C@H](C)OC)c2c3cc(ccc31)-c1cc(O)cc(c1)C[C@H](NC(=O)[C@H](C(C)C)N(C)C(=O)[C@]1(C)CCCN1C(=O)[C@H]1CN1)C(=O)N1CCC[C@H](N1)C(=O)OCC(C)(C)C2 [Example 243] | < 5 | 0.1 to 1 | 0.1 to 1 | 0.1 to 1 | 0.1 to 1 | 0.1 to 1 | 0.1 to 1 | 0.01 to 0.1 | 0.1 to 1 | 0.01 to 0.1 | 0.1 to 1 | 1 to 10 | 1 to 10
